One assay relates to Sprague-Dawley rats. Briefly: Association of MC-3 with erectile response: HP-228 IP with MC-3-specific antagonist ICV in rats. It counts as in vivo. The note with it: rat, HP-228 1.8 mg/kg IP, PBS ICV (no MC-3 antagonist), n=5. The method, then: Sprague-Dawley rats (n=5) received 1.8 mg/kg HP-228 or PBS via IP injection. The rats also received via ICV injection a dose of PBS or MC-3-specific antagonist at 10 μg/5 μl. […] After administration, the rats were observed as described above. All rats received an ICV injection followed by an IP injection 5 to 10 minutes later.
In the negative control rats, receiving only PBS, 0.3 erections per hour were observed. In the positive control rats, receiving HP-228 but no MC-3 antagonist, 3.8 erections per hour were observed.

In another assay the test system is Adult male rats. As to the kind of experiment: Induction of penile erections in rats after intraperitoneal injection, 60 minute observation. It counts as in vivo. The note with it: IP injection of compound alone, 60 min observation, n=6. The method, then:
Adult male rats were housed 2 to 3 per cage and were acclimated to the standard vivarium light cycle (12 hr. light, 12 hr. dark), rat chow and water for a least a week prior to testing. All experiments were performed between 9 a.m. and noon and rats were placed in cylindrical, clear plexiglass chambers during the 60 minute observation period. Mirrors were positioned below the chambers to improve viewing.
Observations began 5 minutes after an intraperitoneal injection of either saline or compound. Two observers counted the number of grooming motions, stretches, yawns and spontaneously occurring penile erections not elicited by genital grooming, and then recorded them as they occurred for a total of 60 minutes. Each observer recorded behaviors of 6 rats at the same time. The observers were unaware of the treatment and animals were tested once, with n=6 in each group. HP-228 was used as a positive control for penile erections.
By comparison, IP injection with agonist TRG 2411 #203 alone (shown below) increased the average number of erections observed to 2.7.

The test system of assay [1] is Adult male Sprague-Dawley rats. Briefly: Dose-response of HP-228 for inducing erections in rats. The note with it: rat, IP. It is filed as in vivo. The method, then: This example describes a dose-response correlation for using HP-228 to induce erections in rats.
(§1) Adult male Sprague-Dawley rats weighing 220 to 250 g or adult male C57/BL6 mice (Harlan Laboratories; Indianapolis Ind.) were injected intraperitoneally (IP) with 1 ml/kg body weight HP-228 solution or PBS as a negative control. Concentrations of HP-228 were 0.45, 0.9, 1.8, 3.6 and 7.2 mg/ml/kg (n=4 to 6 animals). The animals were allowed 10 minutes to acclimate to the surroundings before observation. The animals were then observed for 60 minutes for penile erections not induced by grooming. Yawning, stretching, grooming behaviors were also recorded.

In assay [2] the test system is male Sprague-Dawley rats. As to the kind of experiment: Effect of oxytocin receptor antagonist vasotocin on erectile effects in rats. It is filed as in vivo. The note with it: rat. The text has this: (§2) In both examples, male Sprague-Dawley rats, about 200 to 225 g, were acclimated for 5 days in a reverse light:dark cycle room (dark 10 a.m. to 10 p.m.) before being aseptically ICV cannulated. Rats with indwelling ICV cannulae were housed one per cage. After surgery, 4 days were allowed for recovery and 10 days total were allowed for adaptation to the light cycle. Rats were caged individually after surgery and body weights at the time of treatment averaged 250 g. Otherwise, the procedure is essentially the same as in Example II.
Treatment was between 10 a.m. and 1 p.m. […] Vasotocin (Peninsula Laboratories, San Carlos Calif.) was administered ICV at 100 ng/rat. Oxytocin (Sigma, St. Louis Mo.) was administered ICV at 30 ng/rat (10 μl/rat PBS). Ten minutes later, IP injections of HP-228 or vehicle were given. HP-228 was administered IP at 2 mg/kg in 3 ml/kg PBS. One group of animals received ICV injections of vasotocin and oxytocin ICV injections of 5 μl/rat each at double concentrations for a total of 10 μl injected ICV. In this group, the rats received vasotocin first, followed by oxytocin.

The next assay concerns C57/BL6 mice. As to the kind of experiment: Dose-response of HP-228 for inducing erections in mice. It is filed as in vivo. The settings on record: mouse, IP. The protocol: as §1
This example describes a dose-response correlation for using HP-228 to induce erections in mice (n=3 to 5). Age-matched C57/BL6 mice (Harlan Laboratories; Indianapolis Ind.) weighing 20 to 25 g were injected (100 μl/mouse) intraperitoneally essentially as described above and observed.

The test system of assay [3] is male Sprague-Dawley rats. Briefly: Effect of dopamine receptor antagonist sulpiride on erectile effects in rats. It is filed as in vivo. The note with it: rat.
Source text: as §2
Treatment was between 9:30 a.m. and noon. Each animal received an initial IP injection of vehicle (3 ml/kg PBS) or sulpiride. Sulpiride (Sigma) was administered IP at 50 mg/kg (6 ml/kg IP). Ten minutes later, the animals received a final IP injection of HP-228 or vehicle or a SC injection of apomorphine. HP-228 was administered IP at 2 mg/kg in 3 ml/kg PBS. Apomorphine (Sigma) was administered SC at 0.1 mg/kg (1 ml/kg sterile water).

In a further assay the test system is Rats. Briefly: HP-228-mediated erectile response with MC-3 antagonist TRG 6601 #15—2 ICV in rats. It is filed as in vivo. The note with it: rat, PBS ICV, HP-228 2 mg/kg/ml IP. The method, then: Rats were obtained and cannulated essentially as described in Example VII. Rats received a 10 μl injection ICV containing antagonist “TRG 6601 #15—2” or vehicle alone. The compound was administered as a 1 mg/ml solution in 5% EtOH/PBS at a dose of […]. Five minutes later, the rats were injected IP with either PBS (1 ml/kg) or HP-228 (2 mg/kg/ml). The animals were observed as in Example VII. Erections per hour and rate of animals responding are shown: […]

The subject of the next assay is human subjects. The note with it: pilot phase I clinical studies (Dorr et al. 1996; Wessells et al. 1998); cited from earlier work.
[4] abbreviates: single agent plus PBS: oxytocin 30 ng/rat ICV, HP-228 2 mg/kg IP, vasotocin 100 ng/rat ICV.
The mark [5] stands for this setting: single agent plus PBS: apomorphine 0.1 mg/kg SC, HP-228 2 mg/kg IP, sulpiride 50 mg/kg IP.

For “Ac-Nle-Gln-His-(D)Phe-Arg-(D)Trp-Gly-NH2 [HP-228]”, the erections per hour was determined as 3.8 erections per hour in the assay on Sprague-Dawley rats, 4.9 erections per hour in the assay on male Sprague-Dawley rats [2] (setting [4]), 7.3 erections per hour in the assay with male Sprague-Dawley rats [3] (setting [5]) and 4.7 erections per hour in the assay with Rats. For the same substance, the “average erections observed per rat per hour” value in the assay on Adult male rats is listed as 4.8 erections per rat per hour. Besides, the avg. erections observed/hour is 2.80 erections/hour in assay [1] (0.45 mg/ml/kg HP-228, 60 min observation); 2.60 erections/hour in assay [1] (0.9 mg/ml/kg HP-228, 60 min observation); 3.67 erections/hour in assay [1] (1.8 mg/ml/kg HP-228, 60 min observation); 7.00 erections/hour in assay [1] (3.6 mg/ml/kg HP-228, 60 min observation); 5.75 erections/hour in assay [1] (7.2 mg/ml/kg HP-228, 60 min observation); 3.00 erections/hour in the assay with C57/BL6 mice (25 μg/mouse HP-228). The avg. erections observed/hour in the assay with C57/BL6 mice (50 μg/mouse HP-228) was 6.67 erections/hour; in the assay on C57/BL6 mice (100 μg/mouse HP-228) it was 5.33 erections/hour; with C57/BL6 mice (250 μg/mouse HP-228), 3.00 erections/hour. In addition, the “response rate, % of animals” value in the assay on male Sprague-Dawley rats [2] (oxytocin and HP-228 groups) was 88%-100%; with male Sprague-Dawley rats [3] (apomorphine and HP-228 groups), 100%. Also, in the assay on male Sprague-Dawley rats [2] (setting [4]), the “responder rate of animals (rats responding out of rats)” value is 7/8. Moreover, the figures for the “rate of animals responding” value in the assay with male Sprague-Dawley rats [3] (setting [5]) and in the assay on Rats were 5/5 and 6/6, respectively.

For the substance MELANOTAN-II, the “penile erections in human subjects” value in the assay with human subjects is listed as “cause penile erections”.
